Experimental data reported in patent US10947271B2, “Antibacterial agents” (THE UNIVERSITY OF QUEENSLAND, priority 2014, dated 2021).

Assays:
MRSA (Strain ATCC 43300) = assay: Murine thigh infection model (MRSA); assay type: in vivo, Staphylococcus aureus; details: neutropenic CD1 mice
Method: Summary: Adult (8 week old) female CD1 mice were made neutropenic by two injections of cyclophosphamide 4 days and 1 day prior to infection. An inoculum of 10^5 cfu MRSA (Strain ATCC 43300) was injected intramuscularly into both left and right thighs of all mice. […] After an additional two hours, a 50 μL sample of blood was obtained from the tail bleed to analyse for presence of antibiotic compound. […] Thighs were then removed, weighed and homogenised in a fixed volume of saline. The homogenate solution was filtered, diluted and seeded onto agar plates, which were incubated overnight at 37° C. Colony counts were used to establish the cfu in the thigh homogenates, the cfu/thigh, and the cfu/g of thigh.
Compound preparation: Cyclophosphamide monohydrate (Sigma) was dissolved in sterile saline to a concentration of 30 mg/mL. Likewise, vancomycin (Sigma) and MCC compounds were also dissolved in sterile saline to a final concentration of 60 mg/mL and 18.5 mg/mL respectively. All compounds were prepared in low binding Eppendorf tubes and kept at −20° C. until used.
In vivo experimental assay: Eight week old female outbred CD1 mice (UQBR-AIBN) were rendered neutropenic by injecting two doses of cyclophosphamide intraperitoneally 4 days (150 mg/kg) and 1 day (100 mg/kg) prior to experimental infection. The infection model using MRSA was established by intramuscular injection of 50 μL of early-log-phase bacterial MRSA suspension (around 2×10^6 cfu/mL) in saline into both thigh muscles. […] Untreated animals received equivalent volume of saline (Baxter). The mice were monitored for signs of normal behaviour (i.e. grooming, eating, drinking, sleeping, and alertness) during and following dosing. Two hours after saline/antibiotic treatment, 0.05 mL of blood was collected by tail incision. 24 hours after MRSA infection, mice were euthanized and blood collected from the heart by cardiac puncture (saline group) or by tail incision (Vancomycin and MCC compound treated groups) as outlined in FIG. 1. For each mouse, both thighs were collected aseptically by cutting the leg at the hip and knee, placed in 10 mL of cold sterile saline and the individual weight of each thigh recorded.
Preparation of injectable MRSA solution: An MRSA subculture bacterial isolate (ATCC43300) was taken from the storage at −80° C. and freshly seeded on agar plates for overnight (O/N) growth. From the O/N culture preparation, a single colony was diluted into 10-12 mL of Mueller Hinton broth (MHB) and incubated O/N at 37° C. A log-phase subculture was obtained by adding 100 μL of O/N subculture in 10 mL MHB and incubated for a further 2-3 hours. Finally, the OD600 value of the bacterial suspension was determined and the colony forming units per millilitre (cfu/mL) extrapolated. A full dilution of the bacterial cell suspension in saline was achieved by washing (3220×g for 10 min) and the OD600 in saline determined. The suspension was then diluted out accordingly in order to achieve a 2×10^6 cfu/mL solution (10^5 cfu in 50 μL/thigh).
Thus, 10 μL of the injectable MRSA suspension was diluted down to 10-1000 fold, each dilution plated out onto agar plates and incubated at 37° C. for 24 hours.
Thigh homogenates and CFU determination: Thighs were homogenized at 20,000 rpm for 15 seconds using a Polytron MR2500E using a […] probe (all Kinematica).

[1] = system: Staphylococcus aureus MRSA ATCC 43300; assay: MIC assay, S. aureus MRSA ATCC 43300; assay type: cell-based; details: 24 h incubation, visual reading
In short: (§1)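 Overnight MHB cultures at 37° C were diluted 40-fold and grown 2-3 hrs to mid-log, then added at 5×10e5 CFU/mL to twofold compound dilutions (8 to 0.003 μg/ml). Plates were incubated 24 h at 37° C and MIC scored by eye.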

[2] = system: Streptococcus pneumoniae MDR ATCC 700677; assay: MIC assay, S. pneumoniae MDR ATCC 700677; assay type: cell-based; details: 24 h incubation, visual reading
In short: as §1

[3] = system: Enterococcus faecium MDR Van A ATCC 51559; assay: MIC assay, E. faecium MDR Van A ATCC 51559; assay type: cell-based; details: 24 h incubation, visual reading
In short: as §1

[4] = single subcutaneous dose 10 mg/kg
[5] = single subcutaneous dose 25 mg/kg

CCCCCCCCCC(=O)N[C@@H](Cc1c[nH]c2ccccc12)C(=O)N[C@H](CC(N)=O)C(=O)N[C@@H](CC(=O)O)C(=O)N[C@@H]1C(=O)NCC(=O)N[C@@H](CCCN)C(=O)N[C@@H](CC(=O)O)C(=O)N[C@H](C)C(=O)N[C@@H](CC(=O)O)C(=O)NCC(=O)N[C@H](CO)C(=O)N[C@@H]([C@H](C)CC(=O)O)C(=O)N[C@@H](CC(=O)c2ccccc2N)C(=O)O[C@@H]1C [Daptomycin, reference compound]
Average Reduction log Δcfu MRSA/thigh after 26 h (MRSA (Strain ATCC 43300); single subcutaneous dose 50 mg/kg): xxx (xxx = 4-6)

CCCCCCCCCCC(=O)N[C@@H](CCCCN)C(=O)N[C@@H](CCCCN)C(=O)N[C@@H](CCCCNC(=O)[C@H]1NC(=O)[C@H]2NC(=O)[C@H](NC(=O)[C@@H]3NC(=O)[C@H](CC(N)=O)NC(=O)[C@H](NC(=O)[C@@H](CC(C)C)NC)[C@H](O)c4ccc(c(Cl)c4)Oc4cc3cc(c4O[C@@H]3O[C@H](CO)[C@@H](O)[C@H](O)[C@H]3O[C@H]3C[C@](C)(N)[C@H](O)[C@H](C)O3)Oc3ccc(cc3Cl)[C@H]2O)c2ccc(O)c(c2)-c2c(O)cc(O)cc21)C(=O)O [MCC_000174]
Minimum Inhibitory Concentration (MIC) Staph. aureus ATCC43300 [1]: xxxx (xxxx = 0.01-<0.1) | Minimum Inhibitory Concentration (MIC) S. pneumoniae ATCC 700677 [2]: xxxx (xxxx = 0.01-<0.1) | Minimum Inhibitory Concentration (MIC) E. faecium ATCC51559 [3]: x (x = >4) | Average Reduction log Δcfu MRSA/thigh after 26 h (MRSA (Strain ATCC 43300); single subcutaneous dose 5 mg/kg): xxx (xxx = 4-6) | Average Reduction log Δcfu MRSA/thigh after 26 h (MRSA (Strain ATCC 43300); [4]): xxx (xxx = 4-6) | Average Reduction log Δcfu MRSA/thigh after 26 h (MRSA (Strain ATCC 43300); [5]): xxx (xxx = 4-6)

CNC(=O)[C@H](CCCCNC(=O)[C@H]1NC(=O)[C@H]2NC(=O)[C@H](NC(=O)[C@@H]3NC(=O)[C@H](CC(N)=O)NC(=O)[C@H](NC(=O)[C@@H](CC(C)C)NC)[C@H](O)c4ccc(c(Cl)c4)Oc4cc3cc(c4O[C@@H]3O[C@H](CO)[C@@H](O)[C@H](O)[C@H]3O[C@H]3C[C@](C)(N)[C@H](O)[C@H](C)O3)Oc3ccc(cc3Cl)[C@H]2O)c2ccc(O)c(c2)-c2c(O)cc(O)cc21)NC(=O)[C@H](CCCCN)NC(=O)[C@H](CCCCN)NC(=O)[C@H](CCCCNC(=O)c1ccc(Oc2ccccc2)cc1)NC(=O)c1ccc(Oc2ccccc2)cc1 [MCC_000310]
Minimum Inhibitory Concentration (MIC) Staph. aureus ATCC43300 [1]: xxxxx (xxxxx = <0.01) | Minimum Inhibitory Concentration (MIC) S. pneumoniae ATCC 700677 [2]: xxxxx (xxxxx = <0.01) | Minimum Inhibitory Concentration (MIC) E. faecium ATCC51559 [3]: xxx (xxx = 0.1-<1) | Average Reduction log Δcfu MRSA/thigh after 26 h (MRSA (Strain ATCC 43300); [5]): x (x = 0-2)

CCCCCCCCC(=O)N[C@@H](CCCCN)C(=O)NCCCNC(=O)[C@H]1NC(=O)[C@H]2NC(=O)[C@H](NC(=O)[C@@H]3NC(=O)[C@H](CC(N)=O)NC(=O)[C@H](NC(=O)[C@@H](CC(C)C)NC)[C@H](O)c4ccc(c(Cl)c4)Oc4cc3cc(c4O[C@@H]3O[C@H](CO)[C@@H](O)[C@H](O)[C@H]3O[C@H]3C[C@](C)(N)[C@H](O)[C@H](C)O3)Oc3ccc(cc3Cl)[C@H]2O)c2ccc(O)c(c2)-c2c(O)cc(O)cc21 [MCC_005203]
Average Reduction log Δcfu MRSA/thigh after 26 h (MRSA (Strain ATCC 43300); [4]): xxx (xxx = 4-6)

CCCCCCCCCC(=O)N[C@@H](CCCNC(=N)N)C(=O)N[C@@H](CCCCNC(=O)[C@H]1NC(=O)[C@H]2NC(=O)[C@H](NC(=O)[C@@H]3NC(=O)[C@H](CC(N)=O)NC(=O)[C@H](NC(=O)[C@@H](CC(C)C)NC)[C@H](O)c4ccc(c(Cl)c4)Oc4cc3cc(c4O[C@@H]3O[C@H](CO)[C@@H](O)[C@H](O)[C@H]3O[C@H]3C[C@](C)(N)[C@H](O)[C@H](C)O3)Oc3ccc(cc3Cl)[C@H]2O)c2ccc(O)c(c2)-c2c(O)cc(O)cc21)C(=O)O [MCC_005530]
Average Reduction log Δcfu MRSA/thigh after 26 h (MRSA (Strain ATCC 43300); [4]): xxx (xxx = 4-6)

CCCCCCCCC(=O)NC(CCCNC(=N)N)C(=O)NCCCNC(=O)C1NC(=O)C2NC(=O)C(NC(=O)C3NC(=O)C(CC(N)=O)NC(=O)C(NC(=O)C(CC(C)C)NC)C(O)c4ccc(c(Cl)c4)Oc4cc3cc(c4OC3OC(CO)C(O)C(O)C3OC3CC(C)(N)C(O)C(C)O3)Oc3ccc(cc3Cl)C2O)c2ccc(O)c(c2)-c2c(O)cc(O)cc21 (centres unmarked) [MCC_007336]
Average Reduction log Δcfu MRSA/thigh after 26 h (MRSA (Strain ATCC 43300); [4]): xxxx (xxxx = >6)
